Values of other authors as cited in patent US6500409B1, “Synergistic antiplaque/antigingivitis oral composition” (Colgate Palmolive Company, priority 2000, dated 2002).

How the values were obtained:
[1] = system: plaque adherence to teeth; details: in vitro
S. mutans = details: in vitro

Structure (SMILES) | Inhibition of plaque adherence to teeth, in words [1] | Bactericidal activity in MIC test, in words (S. mutans)
C=CCc1ccc(O)c(-c2cc(CC=C)ccc2O)c1 [magnolol] | not found to be inhibitory | bactericidal
C=CCc1ccc(O)c(-c2ccc(O)c(CC=C)c2)c1 [honokiol] | not found to be inhibitory | bactericidal
